pIC50: −log10 of the molar value. Several values for one entry are separate records, joined by “and”; a condition that tells them apart may be missing. Equal entries are not always repeated. Structures can show the parent of a compound that is named as a salt. Where two headings read alike, the source gives them in different places.
Key:
[1] = system: orally lipid-loaded mouse model (C57BL/6J mice); test: Test for lipid absorption inhibitory action (orally lipid-loaded mouse model); assay type: in vivo; details: for Lipid absorption inhibition ratio (%): plasma neutral fat AUC up to 6 hours after corn oil; for lipid absorption inhibitory action (in words): 30 mg/kg, Comparative Example 1 at 100 mg/kg
Protocol: The lipid absorption inhibitory action of the compounds of Examples 5 and 60 and the compound of Comparative Example 1 was examined in an orally lipid-loaded mouse model. In this test, 10 to 11-week old male C57BL/6J mice (CLEA Japan, Inc.) were used. After the mice were fasted for 17 hours from the preceding day, blood was collected from the fundus, and further the mice were subjected to forced oral administration of one of the compounds or the medium (0.5% methyl cellulose). Thirty minutes after the administration, tyloxapol (500 mg/kg) was administered into the tail vein, and corn oil (200 μl) was orally administered (n=5-6). Blood was collected via the tail vein 2, 4, and 6 hours after the administration of corn oil, and plasma was obtained by centrifuging the blood. The neutral fat concentration in the plasma was measured by using Triglyceride E-Test Wako (Wako Pure Chemical Industries, Ltd.). The neutral fat concentration in the plasma before the administration of the compound was taken as the value at 0 hours, and the area under the curve (AUC) of the neutral fat concentration in the plasma up to 6 hours after the administration of corn oil was calculated. From the average value of the AUC of each administration group, the lipid absorption inhibition ratio was obtained by using the following formula.
Lipid absorption inhibition ratio (%)=(Average value of AUC of medium administration group-Average value of AUC of compound administration group)/Average value of AUC of medium administration group×100

[2] = target: T1, recombinant human MGAT2 enzyme (Homo sapiens, UniProt Q3SYC2); test: Test for human MGAT2 activity inhibitory action (14C-oleoyl CoA, recombinant enzyme microsomes); assay type: biochemical; set-up: key to Potency relative to Comparative Example 1 (higher = more potent): % inhibition = {1−(C−B)/(A−B)}×100, B = 10 μM Comparative Example 1; details: for pIC50: read-out: IC50
T1 construct: made in house; host or cells: CHO-K1 (Jump-In CHO-K1 Kit, Life Technologies); microsomal fraction used as the enzyme solution
T1 sequence (Q3SYC2 whole entry): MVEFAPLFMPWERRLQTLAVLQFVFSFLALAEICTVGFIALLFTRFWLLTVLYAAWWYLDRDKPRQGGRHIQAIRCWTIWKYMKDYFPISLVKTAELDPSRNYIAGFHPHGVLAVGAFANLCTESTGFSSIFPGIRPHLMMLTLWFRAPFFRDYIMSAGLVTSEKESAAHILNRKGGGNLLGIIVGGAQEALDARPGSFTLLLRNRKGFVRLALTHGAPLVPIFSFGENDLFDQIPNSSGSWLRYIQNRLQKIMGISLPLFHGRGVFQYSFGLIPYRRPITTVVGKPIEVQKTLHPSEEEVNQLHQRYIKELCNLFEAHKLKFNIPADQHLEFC
In short: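 Microsomes from CHO-K1 cells expressing human MGAT2 (0.67 μg/mL) reacted 30 min at 37 °C with 50 μM 2-monooleoyl glycerol, 50 μM oleoyl CoA, 2.2 μM 1-14C-oleoyl CoA and 8.3 μM orlistat in 50 mM Tris pH 7.4, 6 mM MgCl2, 2 mg/mL BSA, 0.3% DMSO. Heptane-extracted 14C counted; inhibition normalized between no-compound and 10 μM reference-compound controls.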

[3] = system: C57BL/6J mice fed on high-fat diet (diet-induced obesity mouse model); test: Test for anti-obesity action in high-fat diet fed mice; assay type: in vivo; details: for Body Fat Weight, average value (difference from medium administration group) / Fat-Free Weight, average value (difference from medium administration group): Day 21, quantitative NMR; for Percent Body Weight Change, average value (difference from medium administration group): forced oral once per day Day 1 to Day 22, Day 23, n=8
From the text: The anti-obesity action of the compound of Example 5 was examined in C57BL/6J mice fed on high-fat diet (Research Diets D12492). Thirteen-week old male C57BL/6J-DIO mice (CHARLES RIVER LABORATORIES JAPAN, INC.) were purchased, and fed in animal facilities under a 12-hour light/dark cycle for 13 weeks on the diet of D12492. From six days before the administration of the compound, the animals were habituated by inserting a tube for forced oral administration into the stomach once per day. One day before the administration of the compound, the mice were randomized on the basis of the body weight, and divided into groups (n=8). From Day 1 to Day 22, forced oral administration of the compound or a medium (0.5% methyl cellulose) was conducted once per day. The body weight was measured every day, and the body fat weight and the fat-free weight were measured by using a quantitative NMR apparatus (EcoMRI, Hitachi Aloka Medical, Ltd.) on Day 21.
The percent body weight change (Day 23, Table 6), the body fat weight (Day 21, Table 7), and the fat-free weight (Day 21, Table 8) were each expressed in terms of the difference between the average value of the compound administration group and the average value of the medium administration group, and the difference between the groups was subjected to Dunnett's multiple comparison test (significance level p=0.05). Note that, in Tables 6 to 8, “n.s.” means a non-significant difference.

[4] = 30 mg/kg, Dunnett's test versus medium group
[5] = Table 5, Examples 25 to 60, same method
[6] = Table 5, relative to Comparative Example 1 measured in the same run

## COc1ccc(CNc2nc3c(c(=O)n2-c2ccccc2)CN(C(=O)Nc2ccc(C(F)(F)F)cc2)CC3)cc1 [Comparative Example 1, reference compound]
[1]; Test 1, 30 mg/kg oral
  Lipid absorption inhibition ratio (%): 34%
[1]; Test 1, 100 mg/kg oral
  Lipid absorption inhibition ratio (%): 44%
[1]; Test 2, 100 mg/kg oral
  Lipid absorption inhibition ratio (%): 41%
[2]; First Test (Table 3)
  pIC50: 6.65
[2]; Second Test (Table 4)
  pIC50: 6.52
[2]; Table 5, Comparative Example 1 measured alongside the Example, read-out: IC50 (nM) of Comp. Ex. 1
  IC50: 210 nM and 170 nM and 150 nM and 140 nM and 295 nM and 137 nM and 180 nM and 250 nM and 300 nM and 270 nM and 240 nM and 260 nM and 160 nM and 244 nM and 200 nM

## O=C(CNCCCCCOc1ccc(C(F)(F)F)cc1)N1CCc2nc(SC3CCC3)n(-c3ccccc3)c(=O)c2C1 [Example 5, 2-cyclobutylsulfanyl-3-phenyl-6-[2-[5-[4-(trifluoromethyl)phenoxy]pentylamino]acetyl]-7,8-dihydro-5H-pyrido[4,3-d]pyrimidin-4-one trifluoroacetate]
[1]
  lipid absorption inhibitory action (in words): not inferior to that of the compound of Comparative Example 1
[1]; Test 2, 30 mg/kg oral
  Lipid absorption inhibition ratio (%): 45%
[1]; Test 3, 30 mg/kg oral
  Lipid absorption inhibition ratio (%): 42%
[2]; First Test (Table 3), relative to Comparative Example 1, greater value = higher inhibitory action
  vs Comp. Ex. 1: 349
[2]; IC50 (nM), First Test (Table 3)
  IC50: 0.64 nM
[3]; 10 mg/kg oral once per day
  Body Fat Weight, average value (difference from medium administration group): -2.22 g
  Fat-Free Weight, average value (difference from medium administration group): -0.34 g
[3]; 10 mg/kg
  Percent Body Weight Change, average value (difference from medium administration group): −4.15%
[3]; 30 mg/kg oral once per day
  Body Fat Weight, average value (difference from medium administration group): -4.26 g
  Fat-Free Weight, average value (difference from medium administration group): -0.98 g
[3]; 30 mg/kg
  Percent Body Weight Change, average value (difference from medium administration group): −9.56%
[3]; [4]
  body fat weight (in words): significantly lowered
  percent body weight change (in words): significantly lowered
[3]; 10 and 30 mg/kg, Dunnett's test versus medium group
  decrease of the fat-free body weight (in words): did not have a statistically significant difference

## O=C(CNCCCCCOC1CCC(F)(F)CC1)N1CCc2nc(SC3CCC3)n(-c3ccccc3)c(=O)c2C1 [Example 58, 2-cyclobutylsulfanyl-6-[2-[5-(4,4-difluorocyclohexoxy)pentylamino]acetyl]-3-phenyl-7,8-dihydro-5H-pyrido[4,3-d]pyrimidin-4-one trifluoroacetate]
[2]; [5]
  pIC50: 8.48
[2]; [6]
  Potency relative to Comparative Example 1 (higher = more potent): 63

## O=C(CCNCC#CCOc1ccc(C(F)(F)F)cc1)N1CCc2nc(SC3CCC3)n(-c3ccccc3)c(=O)c2C1 [Example 59, 2-cyclobutylsulfanyl-3-phenyl-6-[3-[4-[4-(trifluoromethyl)phenoxy]but-2-ynylamino]propanoyl]-7,8-dihydro-5H-pyrido[4,3-d]pyrimidin-4-one trifluoroacetate]
[2]; [5]
  pIC50: 8.66
[2]; [6]
  Potency relative to Comparative Example 1 (higher = more potent): 117

## O=C(CCNCC1COc2ccccc2O1)N1CCc2nc(SC3CCC3)n(-c3ccccc3)c(=O)c2C1 (stereo not shown) [Example 60, 2-cyclobutylsulfanyl-6-[3-(2,3-dihydro-1,4-benzodioxin-3-ylmethylamino)propanoyl]-3-phenyl-7,8-dihydro-5H-pyrido[4,3-d]pyrimidin-4-one trifluoroacetate]
[1]
  lipid absorption inhibitory action (in words): comparable to that of the compound of Example 5
[1]; Test 3, 30 mg/kg oral
  Lipid absorption inhibition ratio (%): 42%
[2]; IC50 (nM), Table 5, Examples 25 to 60, same method
  IC50: 1.1 nM
[2]; [6]
  vs Comp. Ex. 1: 140

From patent US20150368242A1, “NOVEL TETRAHYDROPYRIDOPYRIMIDINONE DERIVATIVE” (Ajinomoto Co., Inc., priority 2013, published 2015)
